Measured values: ChEMBL document CHEMBL3045216, “Synthesis and screening of 2-(2-(4-substituted piperazine-1-yl)-5-phenylthiazol-4-yl)-3-aryl quinazolinone derivatives as anticancer agents” (Med Chem Res, 2013)
pIC50: −log10 of the molar value.

How the values were obtained:
MCF7 = test: Anticancer activity against Homo sapiens (human) MCF7 cells assessed as inhibition of cell proliferation after 24 hr by MTT assay; assay type: functional, cell-based; settings: MCF7, 24 h
[1] = Anticancer activity against Homo sapiens (human) NCI lung cancer cell assessed as inhibition of cell proliferation after 24 hr by MTT assay; assay type: functional, cell-based; settings: Cancer cell lines
HEK293 = test: Cytotoxicity against Homo sapiens (human) HEK293 cells assessed as inhibition of cell proliferation after 24 hr by MTT assay; assay type: cell-based; settings: HEK293, 24 h

Row | Structure (SMILES) | pIC50 (MCF7) | pIC50 [1] | pIC50 (HEK293)
1 | CN1CCN(c2nc(-c3ccccc3)c(-c3nc4ccccc4c(=O)n3-c3ccccc3)s2)CC1 | 5.23 | 5.00 | 6.07
2 | O=C(c1ccccc1)N1CCN(c2nc(-c3ccccc3)c(-c3nc4ccccc4c(=O)n3-c3ccccc3)s2)CC1 | 4.70 | 4.87 | 6.38
3 | O=c1c2ccccc2nc(-c2sc(N3CCNCC3)nc2-c2ccccc2)n1-c1ccccc1 | 4.33 | 5.58 | 6.13
4 | CN1CCN(c2nc(-c3ccccc3)c(-c3nc4ccccc4c(=O)n3Nc3ccccc3)s2)CC1 | 6.80 | 5.95 | 5.52
5 | O=C(c1ccccc1)N1CCN(c2nc(-c3ccccc3)c(-c3nc4ccccc4c(=O)n3Nc3ccccc3)s2)CC1 | 5.60 | 5.25 | 6.10
6 | COc1ccc(Nn2c(-c3sc(N4CCNCC4)nc3-c3ccccc3)nc3ccccc3c2=O)cc1 | 4.94 | 5.53 | 5.95
7 | O=C(c1ccccc1)N1CCN(c2nc(-c3ccccc3)c(-c3nc4ccccc4c(=O)n3-c3ccc(Cl)cc3)s2)CC1 | < 4.00 | 4.81 | 6.16
8 | CN1CCN(c2nc(-c3ccccc3)c(-c3nc4ccccc4c(=O)n3-c3ccc(Cl)cc3)s2)CC1 | 5.71 | < 4.00 | 6.03
9 | O=c1c2ccccc2nc(-c2sc(N3CCNCC3)nc2-c2ccccc2)n1-c1ccc(Cl)cc1 | < 4.00 | 5.21 | 4.84
10 | COc1ccccc1-n1c(-c2sc(N3CCN(C)CC3)nc2-c2ccccc2)nc2ccccc2c1=O | 5.82 | 5.03 | 6.17
11 | COc1ccccc1-n1c(-c2sc(N3CCNCC3)nc2-c2ccccc2)nc2ccccc2c1=O | 5.43 | 5.36 | 6.26
12 | COc1ccccc1-n1c(-c2sc(N3CCN(C(=O)c4ccccc4)CC3)nc2-c2ccccc2)nc2ccccc2c1=O | 6.18 | 5.23 | 5.64
13 | CN1CCN(c2nc(-c3ccccc3)c(-c3nc4ccccc4c(=O)n3-c3ccccc3[N+](=O)[O-])s2)CC1 | 5.05 | 5.17 | 6.09
14 | O=c1c2ccccc2nc(-c2sc(N3CCNCC3)nc2-c2ccccc2)n1-c1ccccc1[N+](=O)[O-] | 5.23 | 5.08 | 5.97
15 | O=C(c1ccccc1)N1CCN(c2nc(-c3ccccc3)c(-c3nc4ccccc4c(=O)n3-c3ccccc3[N+](=O)[O-])s2)CC1 | 5.19 | 4.96 | 6.14
16 | O=c1[nH]cc(F)c(=O)[nH]1 [FLUOROURACIL] | 5.90 | 5.64 | 5.67
17 | CN(Cc1cnc2nc(N)nc(N)c2n1)c1ccc(C(=O)N[C@@H](CCC(=O)O)C(=O)O)cc1 [METHOTREXATE] | 5.65 | 5.66 | 5.90
